Results: US11066414B2, “Cot modulators and methods of use thereof” (Gilead Sciences, Inc., priority 2015, dated 2021)
Where two headings read alike, the source gives them in different places.

Key:
TNFα = assay: Cot Monocyte TNFα Cell Based Assay
Human Cot = Human Cot (Homo sapiens (Human), UniProt P41279); assay: High Throughput Cot Biochemical Assay; settings: Cot HTRF (TR-FRET) biochemical assay
[1] = Homo sapiens, Monocyte, read-out: EC50 TNF, LPS-stimulated human monocytes, TNFα

Chain of Human Cot (P41279 30-397): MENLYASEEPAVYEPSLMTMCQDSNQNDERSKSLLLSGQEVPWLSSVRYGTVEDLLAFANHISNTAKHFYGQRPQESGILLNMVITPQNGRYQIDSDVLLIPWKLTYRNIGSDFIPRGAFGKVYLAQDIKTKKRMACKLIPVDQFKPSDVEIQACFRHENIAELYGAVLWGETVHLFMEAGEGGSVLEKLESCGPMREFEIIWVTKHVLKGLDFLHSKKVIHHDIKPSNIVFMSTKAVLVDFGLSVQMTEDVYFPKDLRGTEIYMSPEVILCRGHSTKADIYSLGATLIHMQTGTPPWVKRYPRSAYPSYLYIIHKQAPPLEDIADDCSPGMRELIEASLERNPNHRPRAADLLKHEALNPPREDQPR

Row | Structure (SMILES) | EC50 (TNFα; [1]) | IC50 (Human Cot; IC50 HTRF) | EC50 (TNFα; read-out: EC50 TNF, LPS-stimulated human monocytes, TNFα) | IC50 (Human Cot; read-out: IC50 HTRF)
1 | Cc1n[nH]c2cccc([C@H](Nc3cc(Cl)c4ncc(C#N)c(NCC(C)(C)C)c4c3)c3cn(C4(C(F)F)CC4)nn3)c12 [Example 556, (S)-8-chloro-6-(((1-(1-(difluoromethyl)cyclo-propyl)-1H-1,2,3-triazol-4-yl)(3-methyl-1H-indazol-4-yl)methyl)amino)-4-(neopentyl-amino)quinoline-3-carbonitrile] | 120 nM | 8 nM |  | 
2 | Cn1ncc2c([C@H](Nc3cc(C#N)c4ncc(C#N)c(NCC(C)(C)C)c4c3)c3cn(C4(C(F)(F)F)CC4)nn3)cccc21 [Example 557, (S)-6-(((1-methyl-1H-indazol-4-yl)(1-(1-(trifluoro-methyl)cyclopropyl)-1H-1,2,3-triazol-4-yl)methyl)amino)-4-(neopentylamino)-quinoline-3,8-dicarbonitrile] | 117 nM | 5 nM |  | 
3 | Cn1cc2c([C@H](Nc3cc(C#N)c4ncc(C#N)c(NCC(C)(C)C)c4c3)c3cn(C4(C(F)(F)F)CC4)nn3)cccc2n1 [Example 558, (S)-6-(((2-methyl-2H-indazol-4-yl)(1-(1-(trifluoromethyl)cyclopropyl)-1H-1,2,3-triazol-4-yl)methyl)amino)-4-(neopentyl-amino)quinoline-3,8-dicarbonitrile] | 72 nM | 3 nM |  | 
4 | Cn1nnc2cccc([C@H](Nc3cc(C#N)c4ncc(C#N)c(NCC(C)(C)C)c4c3)c3cn(C4(C(F)F)CC4)nn3)c21 [Example 559, (S)-6-(((4-(1-1-(difluoromethyl)cyclopropyl)-1H-1,2,3-triazol-4-yl)(1-methyl-1H-benzo[d] [1,2,3]triazol-7-yl)methyl)amino)-4-(neopentylamino)quinoline-3,8-dicarbonitrile] |  |  | 42 nM | 2 nM

Other lines, results leading:

Row | EC50 (TNFα; [1]) | IC50 (Human Cot; IC50 HTRF) | EC50 (TNFα; read-out: EC50 TNF, LPS-stimulated human monocytes, TNFα) | IC50 (Human Cot; read-out: IC50 HTRF) | Structure (SMILES)
5 | 151 nM | 5 nM |  |  | Cc1nc(F)ccc1[C@H](Nc1cc(Cl)c2ncc(C#N)c(NCC(C)(C)C)c2c1)c1cn(C2(C(=O)N3CCCC3)CC2)nn1 [Example 554, (S)-8-chloro-6-(((6-fluoro-2-methylpyridin-3-yl)(1-(1-(pyrrolidine-1-carbonyl)cyclopropyl)-1H-1,2,3-triazol-4-yl)methyl)amino)-4-(neopentylamino)quinoline-3-carbonitrile]
6 | 208 nM | 7 nM |  |  | Cc1nc(F)ccc1[C@H](Nc1cc(Cl)c2ncc(C#N)c(NCC(C)(C)C)c2c1)c1cn(C2(C(=O)N3CCOCC3)CC2)nn1 [Example 555, (S)-8-chloro-6-(((6-fluoro-2-methylpyridin-3-yl)(1-(1-(morpholine-4-carbonyl)cyclopropyl)-1H-1,2,3-triazol-4-yl)methyl)amino)-4-(neopentylamino)quinoline-3-carbonitrile]
7 | 287 nM | 11 nM |  |  | CC(C)(C)CNc1c(C#N)cnc2c(Cl)cc(N[C@H](c3cn(C4(C(F)(F)F)CC4)nn3)c3cccn4nccc34)cc12 [Example 560, (S)-8-chloro-4-(neopentylamino)-6-((pyrazolo[1,5-a]pyridin-4-yl(1-(1-(trifluoromethyl)cyclopropyl)-1H-1,2,3-triazol-4-yl)methyl)amino)quinoline-3-carbonitrile]
8 | 433 nM | 2 nM |  |  | CC(C)(C)CNc1c(C#N)cnc2c(Cl)cc(N[C@H](c3cn(C4(C(N)=O)CC4)nn3)c3cccc4cnccc34)cc12 [Example 561, (S)-1-(4-(((8-chloro-3-cyano-4-(neopentylamino)quinolin-6-yl)amino) (isoquinolin-5-yl)methyl)-1H-1,2,3-triazol-1-yl)cyclopropane-1-carboxamide]
9 | 231 nM | 2 nM |  |  | CC(C)(C)CNc1c(C#N)cnc2c(Cl)cc(N[C@H](c3cn(C4(C(N)=O)CCC4)nn3)c3cccc4cnccc34)cc12 [Example 562, (S)-1-(4-(((8-chloro-3-cyano-4-(neopentyl-amino)quinolin-6-yl)amino)(isoquinolin-5-yl)methyl)-1H-1,2,3-triazol-1-yl)cyclobutane-1-carboxamide]
